Experimental data as given in patent US20240122938A1, “METHODS AND COMPOSITIONS FOR TREATING UVEAL MELANOMA” (INSERM (INSTITUT NATIONAL DE LA SANTÉ ET DE LA RECHERCHE …, priority 2019, published 2024).

System: short-term cultures of primary uveal melanoma tumour
Test: Cell death in short-term cultures
Assay type: cell-based, human
Settings: data not shown
Method: Human uveal melanoma cell lines and short-term cultures derived from different patients with metastatic malignant melanoma cells were grown in DMEM supplemented with 7% FBS at 37° C. in a humidified atmosphere containing 5% CO2. Lipofectamine™ RNAiMAX and opti-MEM medium were purchased from Invitrogen (San Diego, CA, USA). ABT-263 was obtained from Euromedex and qVD from Clinisciences. Cells were seeded at a density of 100 000 cells/well, in 6-well plate and treated with ABT-263 for indicated time. Cells were harvested using accutase enzyme, washed twice with ice-cold phosphate-buffered saline, resuspended in a buffer (Hepes 250 mM, NaCl 150 mM, KCl 5 mM, MgCl2 2 mM, CaCl2) 2 mM) with DAPI (1 μg/ml) and Annexin V-Alexa Fluor 647 conjugate (1/100) and incubated for 15 minutes at room temperature (25° C.) in the dark. Samples were immediately analyzed by a flow cytometer (MACS QUANT) using a laser at 405 nm excitation with a bandpass filter at 425 nm and 475 nm for DAPI detection and a laser at 635 nm excitation with a bandpass filter at 650 nm and 665 nm for Alexa Fluor 647 dye. Annexin and DAPI mono- or double positive cells were counted as dead cells.

## CC1(C)CCC(c2ccc(Cl)cc2)=C(CN2CCN(c3ccc(C(=O)NS(=O)(=O)c4ccc(N[C@H](CCN5CCOCC5)CSc5ccccc5)c(S(=O)(=O)C(F)(F)F)c4)cc3)CC2)C1 [ABT-263, 4-[4-[[2-(4-chlorophenyl)-5,5-dimethyl-1-cyclohexen-1-yl]methyl]-1-piperazinyl]-N-[[4-[[(1R)-3-(4-morpholinyl)-1-[(phenylthio)methyl]propyl]amino]-3-[(trifluoromethyl)sulfonyl]phenyl]sulfonyl]-benzamide]
  killing effect: killing effect was also found
